Source: patent US10760110B2, “Antibiotic testing and screening system” (priority 2017, dated 2020)
In brackets after ≈: the same amount, converted by molar mass. Read-outs that look alike come from different tables or passages of the source.

How the values were obtained:
Settings in all cases: Klebsiella pneumoniae
[1] = system: K. pneumoniae NVT1001 ΔramRΔompK35/36 mutant and its revertants; assay: Etest MIC, ΔramRΔompK35/36 mutant and its revertants (Table 7); type: cell-based
[2] = system: K. pneumoniae NVT1001 and its ΔompK35/36 and/or ΔramR mutants; assay: Etest MIC, OmpK35/36 loss and AcrAB-TolC overexpression (ΔramR) strains (Table 6); type: cell-based, Klebsiella pneumoniae
Summary of the method: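 Etest MICs against K. pneumoniae NVT1001 and its ΔompK35/36 and/or ΔramR mutants, rounded up to the next two-fold value. For NVT1001 carrying pACYC177-blaOXA-48, ceftazidime and cefotaxime MICs by CLSI broth microdilution, interpreted with CLSI 2017 breakpoints.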

[3] = system: K. pneumoniae NVT1001 strains with carbapenemase plasmids; assay: Etest MIC of β-lactams, OmpK35/36 loss, ΔramR and/or carbapenemase (Table 9); type: cell-based, Klebsiella pneumoniae
Protocol: DNA fragments of the resistance genes along with their flanking regions were amplified from clinical plasmids via PCR with specific primer pairs. The resulting PCR fragments were digested and then cloned into the plasmid pACYC177 or pACYC184. The resulting plasmids were then transformed into K. pneumoniae strain NVT1001 via electroporation. The recombinant bacteria were plated onto LB agar plates containing kanamycin (50 mg/L) or chloramphenicol (50 mg/L), and the presence of the cloned gene was confirmed via PCR and DNA sequencing.
The MICs of antibiotics were determined using the Etest (Biodisk AB, Sweden) according to the manufacturer's instructions. The MICs from the Etest, which fall between standard two-fold dilutions, were rounded up to the next highest two-fold value. The MICs of ceftazidime and cefotaxime against K. pneumoniae NVT1001 harbouring the pACYC177 plasmid with blaOXA-48 were further determined using a broth microdilution test according to the recommendations of the CLSI,^25 and the results were interpreted according to the breakpoints established by the CLSI in 2017.^25 Meanwhile, due to the lack of CLSI breakpoints in 2016 and 2017, the results for cephalothin were interpreted according to the breakpoints established by the CLSI in 2015,^26 and the results for moxifloxacin were interpreted according to the breakpoints established by the EUCAST in 2017.^27

**Q.** What does the source list for `CO/N=C(\C(=O)N[C@@H]1C(=O)N2C(C(=O)O)=C(COC(C)=O)CS[C@H]12)c1csc(N)n1` [Cefotaxime]?
**A.** MIC ([1]; ΔramRΔompK35/36::ompK35/36 revertant): 1 µg/mL; MIC ([1]; ΔramRΔompK35/36::ompK35 revertant): 4 µg/mL; MIC ([1]; ΔramRΔompK35/36::ompK36 revertant): 1 µg/mL; MIC ([1]; ΔramRΔompK35/36::ramR revertant): 2 µg/mL; MIC ([1]; ΔramRΔompK35/36::ramR::ompK35/36 revertant): 0.06 µg/mL; MIC ([1]; ΔramRΔompK35/36::ramR::ompK35 revertant): 0.25 µg/mL; MIC ([1]; ΔramRΔompK35/36::ramR::ompK36 revertant): 0.125 µg/mL; MIC ([1]; ΔramRΔompK35/36 mutant): 4 µg/mL; MIC ([2]; WT, NVT1001, read-out: MIC): 0.06 µg/mL (≈ 0.132 µM); MIC ([2]; Δ35, ΔompK35 mutant): 0.125 µg/mL (≈ 0.274 µM); MIC ([2]; Δ35/36, ΔompK35/36 mutant): 2 µg/mL (≈ 4.39 µM); MIC ([2]; Δ36, ΔompK36 mutant): 0.25 µg/mL (≈ 0.549 µM); MIC ([2]; ΔramR mutant): 1 µg/mL (≈ 2.2 µM); MIC ([2]; ΔramRΔ35, ΔramRΔompK35 mutant): 1 µg/mL (≈ 2.2 µM); MIC ([2]; ΔramRΔ35/36, ΔramRΔompK35/36 mutant): 4 µg/mL (≈ 8.78 µM); MIC ([2]; ΔramRΔ36, ΔramRΔompK36 mutant): 4 µg/mL (≈ 8.78 µM); MIC ([3]; IMP-8 on pACYC177, WT (NVT1001), read-out: MIC): 64 µg/mL; MIC ([3]; IMP-8 on pACYC177, Δ35 (ΔompK35 mutant)): 128 µg/mL; MIC ([3]; IMP-8 on pACYC177, Δ35/36 (ΔompK35/36 mutant)): > 256 µg/mL; MIC ([3]; IMP-8 on pACYC177, Δ36 (ΔompK36 mutant)): 256 µg/mL; MIC ([3]; IMP-8 on pACYC177, ΔramR mutant): 128 µg/mL; MIC ([3]; IMP-8 on pACYC177, ΔramRΔ35 (ΔramRΔompK35 mutant)): 128 µg/mL; MIC ([3]; IMP-8 on pACYC177, ΔramRΔ35/36 (ΔramRΔompK35/36 mutant)): 256 µg/mL; MIC ([3]; IMP-8 on pACYC177, ΔramRΔ36 (ΔramRΔompK36 mutant)): 256 µg/mL; MIC ([3]; KPC-2 on pACYC177, WT (NVT1001), read-out: MIC): 128 µg/mL; MIC ([3]; KPC-2 on pACYC177, Δ35 (ΔompK35 mutant)): 256 µg/mL; MIC ([3]; KPC-2 on pACYC177, Δ35/36 (ΔompK35/36 mutant)): > 256 µg/mL; MIC ([3]; KPC-2 on pACYC177, Δ36 (ΔompK36 mutant)): 256 µg/mL; MIC ([3]; KPC-2 on pACYC177, ΔramR mutant): 256 µg/mL; MIC ([3]; KPC-2 on pACYC177, ΔramRΔ35 (ΔramRΔompK35 mutant)): 256 µg/mL; MIC ([3]; KPC-2 on pACYC177, ΔramRΔ35/36 (ΔramRΔompK35/36 mutant)): > 256 µg/mL; MIC ([3]; KPC-2 on pACYC177, ΔramRΔ36 (ΔramRΔompK36 mutant)): > 256 µg/mL; MIC ([3]; KPC-3 on pACYC177, WT (NVT1001), read-out: MIC): 128 µg/mL; MIC ([3]; KPC-3 on pACYC177, Δ35 (ΔompK35 mutant)): 256 µg/mL; MIC ([3]; KPC-3 on pACYC177, Δ35/36 (ΔompK35/36 mutant)): > 256 µg/mL; MIC ([3]; KPC-3 on pACYC177, Δ36 (ΔompK36 mutant)): 256 µg/mL; MIC ([3]; KPC-3 on pACYC177, ΔramR mutant): 256 µg/mL; MIC ([3]; KPC-3 on pACYC177, ΔramRΔ35 (ΔramRΔompK35 mutant)): 256 µg/mL; MIC ([3]; KPC-3 on pACYC177, ΔramRΔ35/36 (ΔramRΔompK35/36 mutant)): > 256 µg/mL; MIC ([3]; KPC-3 on pACYC177, ΔramRΔ36 (ΔramRΔompK36 mutant)): > 256 µg/mL; MIC ([3]; NDM-1 on pACYC177, WT (NVT1001), read-out: MIC): 256 µg/mL; MIC ([3]; NDM-1 on pACYC177, Δ35 (ΔompK35 mutant)): 256 µg/mL; MIC ([3]; NDM-1 on pACYC177, Δ35/36 (ΔompK35/36 mutant)): > 256 µg/mL; MIC ([3]; NDM-1 on pACYC177, Δ36 (ΔompK36 mutant)): > 256 µg/mL; MIC ([3]; NDM-1 on pACYC177, ΔramR mutant): > 256 µg/mL; MIC ([3]; NDM-1 on pACYC177, ΔramRΔ35 (ΔramRΔompK35 mutant)): > 256 µg/mL; MIC ([3]; NDM-1 on pACYC177, ΔramRΔ35/36 (ΔramRΔompK35/36 mutant)): > 256 µg/mL; MIC ([3]; NDM-1 on pACYC177, ΔramRΔ36 (ΔramRΔompK36 mutant)): > 256 µg/mL; MIC ([3]; OXA-48 on pACYC177, WT (NVT1001), read-out: MIC): 2 µg/mL; MIC ([3]; OXA-48 on pACYC177, Δ35 (ΔompK35 mutant)): 4 µg/mL; MIC ([3]; OXA-48 on pACYC177, Δ35/36 (ΔompK35/36 mutant)): 32 µg/mL; MIC ([3]; OXA-48 on pACYC177, Δ36 (ΔompK36 mutant)): 16 µg/mL; MIC ([3]; OXA-48 on pACYC177, ΔramR mutant): 4 µg/mL; MIC ([3]; OXA-48 on pACYC177, ΔramRΔ35 (ΔramRΔompK35 mutant)): 4 µg/mL; MIC ([3]; OXA-48 on pACYC177, ΔramRΔ35/36 (ΔramRΔompK35/36 mutant)): 32 µg/mL; MIC ([3]; OXA-48 on pACYC177, ΔramRΔ36 (ΔramRΔompK36 mutant)): 32 µg/mL; MIC ([3]; VIM-1 on pACYC177, WT (NVT1001), read-out: MIC): > 256 µg/mL; MIC ([3]; VIM-1 on pACYC177, Δ35 (ΔompK35 mutant)): > 256 µg/mL; MIC ([3]; VIM-1 on pACYC177, Δ35/36 (ΔompK35/36 mutant)): > 256 µg/mL; MIC ([3]; VIM-1 on pACYC177, Δ36 (ΔompK36 mutant)): > 256 µg/mL; MIC ([3]; VIM-1 on pACYC177, ΔramR mutant): > 256 µg/mL; MIC ([3]; VIM-1 on pACYC177, ΔramRΔ35 (ΔramRΔompK35 mutant)): > 256 µg/mL; MIC ([3]; VIM-1 on pACYC177, ΔramRΔ35/36 (ΔramRΔompK35/36 mutant)): > 256 µg/mL; MIC ([3]; VIM-1 on pACYC177, ΔramRΔ36 (ΔramRΔompK36 mutant)): > 256 µg/mL; MIC ([3]; no supplemental plasmid, WT (NVT1001), read-out: MIC): 0.06 µg/mL; MIC ([3]; no supplemental plasmid, Δ35 (ΔompK35 mutant)): 0.125 µg/mL; MIC ([3]; no supplemental plasmid, Δ35/36 (ΔompK35/36 mutant)): 2 µg/mL; MIC ([3]; no supplemental plasmid, Δ36 (ΔompK36 mutant)): 0.25 µg/mL; MIC ([3]; no supplemental plasmid, ΔramR mutant): 1 µg/mL; MIC ([3]; no supplemental plasmid, ΔramRΔ35 (ΔramRΔompK35 mutant)): 1 µg/mL; MIC ([3]; no supplemental plasmid, ΔramRΔ35/36 (ΔramRΔompK35/36 mutant)): 4 µg/mL; MIC ([3]; no supplemental plasmid, ΔramRΔ36 (ΔramRΔompK36 mutant)): 4 µg/mL
